Assay results reported in patent US20260226049A1, “NITROGEN-CONTAINING HETEROCYCLIC COMPOUND, PREPARATION METHOD THEREFOR, AND USE THEREOF” (BIVISION PHARMACEUTICALS, INC, priority 2023, published 2026).

Test system: HT1080 cell line with high FAP expression
Test: Therapeutic experiment of ^177Lu-labeled compounds in tumor-bearing mice
Assay type: in vivo, Balb/c Nude mice
Details: for T/C / Tumor volume (mm^3) Group administration Day 14 / TGI^TV (%): 0.8 mCi; for T/C / Tumor volume (mm^3) Group administration Day 14: Day 14; for TGI^TV (%): Day 14, relative tumor inhibition rate; for Tumor volume (mm^3) Before administration: baseline, 0.8 mCi group
Procedure: Balb/c Nude tumor-bearing mice (supplier: Shanghai Alamo Pharmaceutical Technology Co., Ltd., HT1080 cell line with high FAP expression) aged approximately 6-8 weeks were randomly assigned to 13 experimental groups based on tumor volume, with 5 mice per group. Animal body weight and tumor size were measured, and administration was initiated on the grouping day starting with Group 1 (control group: normal saline). General health and appearance were observed daily after the start of the experiment. Animal body weight and tumor size were measured before each sample collection time point. Any abnormal observations detected during the entire study period were required to be recorded in the raw data.
The synthesized compounds were labeled with ^177Lu and subsequently utilized in the therapeutic assay on mouse tumor models. […] Furthermore, no significant changes in mouse body weight (FIG. 8) were observed throughout the experimental period.
• TGI^TV: Relative tumor inhibition rate (TGI^TV): TGI^TV (%)=[1−(Ti−T0)/(Vi−V0)]×100%; • (Ti: average tumor volume of the treatment group on day i of administration, TO: average tumor volume of the treatment group on day 0 of administration; Vi: average tumor volume of the solvent control group on day i of administration, V0: average tumor volume of the solvent control group on day 0 of administration) • T/C: T/C % is one of the most commonly used indicators for tumor response to treatment: T/C %=T/C*100%; • (T represents the average tumor volume of the treatment group at a specific time point; C represents the average tumor volume of the control group at a specific time point.)
The differences between the treatment groups (tumor volumes of the second, third, fourth, and fifth groups) and the control group (tumor volume of the first group) and between the tumor volumes of the first, third, fourth, and fifth groups and the tumor volume of the second group were analyzed using the two-way ANOVA Fisher's LSD test method. P-values less than 0.05 were considered statistically significant. Both statistical significance and biological significance were taken into account during the result analysis.

Structure (SMILES) | T/C [%] | Tumor volume (mm^3) Group administration Day 14 [mm^3] | TGI^TV (%) | Tumor volume (mm^3) Before administration [mm^3]
N#C[C@@H]1CC(F)(F)CN1C(=O)CNC(=O)c1ccnc2c(NC(=O)CCC(=O)NCCNC(=O)CCC(C(=O)O)N3CCN(CC(=O)O)CCN(CC(=O)O)CCN(CC(=O)O)CC3)cccc12.[177Lu] (some centres unmarked) [^177Lu-OncoFAP-DOTAGA, reference compound] | 32.33 | 844.66 ± 41.70 | 69.90 | 137.00 ± 12.07
N#C[C@@H]1CC(F)(F)CN1C(=O)CNC(=O)c1cccc2c1CCN(C(=O)CCC(=O)NCCNC(=O)CCC(C(=O)O)N1CCN(CC(=O)O)CCN(CC(=O)O)CCN(CC(=O)O)CC1)C2 (some centres unmarked) [^177Lu-JHH5, metal not drawn] | 20.89 | 545.74 ± 94.21 | 83.08 | 148.04 ± 9.78
